Converted amounts (≈) assume the structure as drawn. “And” between values parts separate entries of the source, which are not always exact repeats. Equal values may be shown once. Read-outs that look alike come from different tables or passages of the source.

Series [1] relates to trans-translation. In words: In vitro trans-translation assay (S12 extract, nanoluc-ns, tmRNA-nl). It counts as biochemical, Escherichia coli. More on the design: background subtraction: unit not given here. To be noted: for IC50: in vitro reconstituted assay; for normalized: activity, 0 = 100. The source says:
The in vitro trans-translation assay is designed to produce the first 157 amino acids of nano-luciferase from a non-stop mRNA (nanoluc-ns) and add the C-terminal peptide […] via a mutant version of E. coli tmRNA (tmRNA-nl) to reconstitute an active nano-luciferase[45]. In this assay, the tagged nano-luciferase gene has >30,000-fold increase in activity over the peptide made in the absence of tmRNA-nl.
S12 lysates were made according to the procedure of Kim, et al.[46]. Briefly, a culture of E. coli BL21 (DE3) cells containing a pET28 plasmid carrying the E. coli T7 polymerase gene was grown at 37 °C to an OD600 = 0.8, induced with 1 mM IPTG and grown for an additional 3 h. Cells were harvested by centrifugation at 20,000 × g for 10 min at 4 °C and the pellet was resuspended in buffer A (20 mM Tris-acetate (pH 8.2), 14 mM Mg(OAc)2, 60 mM potassium glutamate, 1 mM DTT). Cells were lysed by sonication, the lysate was clarified by centrifugation at 12,000 × g for 10 min, and the supernatant was stored at −80 °C.
E. coli SmpB was purified as previously described. tmRNA-nl, a variant of E. coli tmRNA encoding the final 11 residues of nano-luciferase, was transcribed from the tmRNA-nl synthetic DNA sequence in vitro, purified, and folded as previously described for wild-type E. coli tmRNA[3]. The nanoluc-stop template DNA was prepared as previously described[3] by PCR amplification from pMC1 using T7 universal and nanoluc-stop primers. The nanoluc-ns was prepared in a similar manner using pMC1 with T7 universal and nanoluc-ns primers.
For in vitro trans-translation, tmRNA-nl and SmpB were premixed and stored on ice. S12 lysate (2 μl), freshly made polymix buffer (2 μl)[47] (final reaction concentrations 5 mM Hepes pH 7.6, 5 mM NH4Cl, 0.5 mM CaCl2, 1.5 mm MgCl2, 1 mM DTT, 8 mm putrescene, 2 mm ATP, 2 mM GTP, 1 mM CTP, 1 mM UTP, 0.3 mM each amino acid, 3 mg/ml E. coli tRNAs), nanoluc-ns template (0.5 μl; 60 ng) and 2 µl water were mixed and incubated at 37 °C for 5 min. This solution was dispensed to tubes containing 0.5 μl of different concentrations of an inhibitor prepared in 75% acetonitrile, 25% water, and incubated at 37 °C for 5 min. The tmRNA-nl/SmpB mixture (0.5 μl each, 2 μM final) was added to each tube and the samples were incubated at 37 °C for 1.5 h. NanoLuc substrate (Promega) was prepared according to the manufacturer’s instructions, one volume of this substrate solution was added to each sample tube, and the reactions transferred to a white 96-well plate. Luminescence readings were obtained using the SpectraMax i3 microplate reader. Data analysis was performed using GraphPad Prism 8.

Series [2] has as its target T1, Endothelin ETA (Homo sapiens, UniProt P25101).
T1 construct: purchased Eurofins Discovery Services (Panlabs safety panel)
Kind of series: Receptor Profiling 224010. It counts as binding. The method, then: (§1) Several in vitro selectivity assays were performed at Eurofins Discovery Services using established methods and controls that behaved as expected (Supplementary Tables 5 and 6). […] For receptor panel profiling, MBX-4132 was evaluated at 10 μM and activity of >50% (agonist or antagonist; note that negative % inhibition indicates agonism) was scored as active.

For series [3], the target named is T2, Serotonin (5-hydroxytryptamine) 5-HT1B (Homo sapiens, UniProt P28222).
T2 construct: purchased Eurofins Discovery Services (Panlabs safety panel)
T2 sequence (P28222 whole entry): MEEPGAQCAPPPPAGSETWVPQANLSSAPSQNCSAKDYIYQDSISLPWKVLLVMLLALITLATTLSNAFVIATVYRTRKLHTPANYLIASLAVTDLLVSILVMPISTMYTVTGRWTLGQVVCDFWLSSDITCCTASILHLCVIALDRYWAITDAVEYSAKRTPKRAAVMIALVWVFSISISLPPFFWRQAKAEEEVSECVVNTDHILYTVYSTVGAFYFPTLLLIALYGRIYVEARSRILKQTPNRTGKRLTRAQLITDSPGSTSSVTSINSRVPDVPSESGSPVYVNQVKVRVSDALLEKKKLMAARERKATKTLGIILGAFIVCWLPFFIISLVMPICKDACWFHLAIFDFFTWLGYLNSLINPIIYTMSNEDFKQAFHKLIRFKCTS
Kind of series: Receptor Profiling 271230. Format: binding. The method, then: as §1

Series [4] has as its system Sodium Channel, Site 2. Kind of series: Receptor Profiling 279510. Format: binding, rat. To be noted: 10 μM. The method, then: as §1
The nature of series [5]: Serum protein binding, rat. To be noted: Eurofins; for fraction unbound: rat, serum, read-out: Serum binding (% bound) Rat (converted). It counts as in vitro ADME. The protocol: Serum protein binding was determined using an equilibrium dialysis method as described. The amount of compound in each chamber (buffer and serum) was measured using methods for reverse-phase liquid chromatography/mass spectroscopy methods that were customized for each compound.

Series [6] concerns the target T3, Transporter, Serotonin (5-Hyroxytryptamine) (SERT) (Homo sapiens, UniProt P31645).
T3 construct: purchased Eurofins Discovery Services 274030
In words: Receptor Profiling 274030. Format: binding. The protocol: as §1

In series [7] the target is T4, Muscarinic M1 (Homo sapiens, UniProt P11229).
T4 construct: purchased Eurofins Discovery Services (Panlabs safety panel)
T4 sequence (P11229 whole entry): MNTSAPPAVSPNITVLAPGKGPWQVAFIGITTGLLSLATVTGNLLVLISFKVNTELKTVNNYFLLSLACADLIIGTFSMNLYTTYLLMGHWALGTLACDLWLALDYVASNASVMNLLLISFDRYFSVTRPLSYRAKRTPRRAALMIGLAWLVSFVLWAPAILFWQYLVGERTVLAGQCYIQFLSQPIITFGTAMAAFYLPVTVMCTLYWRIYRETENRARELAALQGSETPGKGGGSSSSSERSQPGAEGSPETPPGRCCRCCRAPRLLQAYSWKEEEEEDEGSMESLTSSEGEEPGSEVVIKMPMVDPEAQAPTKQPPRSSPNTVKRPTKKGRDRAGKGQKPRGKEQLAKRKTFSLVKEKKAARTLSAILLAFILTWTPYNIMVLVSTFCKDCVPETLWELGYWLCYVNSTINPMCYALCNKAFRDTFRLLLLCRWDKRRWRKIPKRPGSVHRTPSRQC
In words: Receptor Profiling 252610. Format: binding. The method, then: as §1

Series [8] in a line: Liver microsome stability, human. Format: in vitro ADME. The method, then: To examine potential for first-pass metabolism of analogs in the liver, the stability of analogs in the presence of liver microsome preparations (Eurofins Discovery for human, dog and rat; Xenotech for mouse) was measured using the method of Kuhnz, et al.[50]. for murine studies and Oback for the dog, human and rat studies. The amount of parent compound remaining after incubation with microsomes in the presence of NADPH over a 30 min time range was measured using a reverse-phase liquid chromatography/mass spectroscopy method that was customized for each compound. Half-lives were calculated using linear regression analysis of several time points.
(Microsomes from liver hold many membrane-bound enzymes, among them those of drug oxidation.)

Series [9] addresses T5, Serotonin (5-hydroxytryptamine) 5-HT2A (Homo sapiens, UniProt P28223).
T5 construct: purchased Eurofins Discovery Services (Panlabs safety panel)
In words: Receptor Profiling 271650. It counts as binding. The method, then: as §1

In series [10] the target is T6, Serotonin (5-hydroxytryptamine) 5-HT1A (Homo sapiens, UniProt P08908).
T6 construct: purchased Eurofins Discovery Services (Panlabs safety panel)
T6 sequence (P08908 whole entry): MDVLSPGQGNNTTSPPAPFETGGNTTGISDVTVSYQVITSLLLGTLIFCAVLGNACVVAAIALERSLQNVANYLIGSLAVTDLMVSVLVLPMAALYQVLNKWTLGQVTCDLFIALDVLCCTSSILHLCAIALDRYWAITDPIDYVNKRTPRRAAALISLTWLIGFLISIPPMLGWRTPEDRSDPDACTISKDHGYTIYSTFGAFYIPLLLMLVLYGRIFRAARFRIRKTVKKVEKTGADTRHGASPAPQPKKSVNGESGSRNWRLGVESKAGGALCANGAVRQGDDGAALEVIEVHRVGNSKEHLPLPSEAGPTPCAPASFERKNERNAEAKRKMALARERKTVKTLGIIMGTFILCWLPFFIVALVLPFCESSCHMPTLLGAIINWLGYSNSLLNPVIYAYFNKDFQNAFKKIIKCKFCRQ
Kind of series: Receptor Profiling 271110. It counts as binding. The protocol: as §1

Series [11] deals with T7, Cycloogenase COX-2 (Homo sapiens, UniProt P35354).
T7 construct: Eurofins Discovery Services (contract assay) 118030
T7 sequence (P35354 18-604): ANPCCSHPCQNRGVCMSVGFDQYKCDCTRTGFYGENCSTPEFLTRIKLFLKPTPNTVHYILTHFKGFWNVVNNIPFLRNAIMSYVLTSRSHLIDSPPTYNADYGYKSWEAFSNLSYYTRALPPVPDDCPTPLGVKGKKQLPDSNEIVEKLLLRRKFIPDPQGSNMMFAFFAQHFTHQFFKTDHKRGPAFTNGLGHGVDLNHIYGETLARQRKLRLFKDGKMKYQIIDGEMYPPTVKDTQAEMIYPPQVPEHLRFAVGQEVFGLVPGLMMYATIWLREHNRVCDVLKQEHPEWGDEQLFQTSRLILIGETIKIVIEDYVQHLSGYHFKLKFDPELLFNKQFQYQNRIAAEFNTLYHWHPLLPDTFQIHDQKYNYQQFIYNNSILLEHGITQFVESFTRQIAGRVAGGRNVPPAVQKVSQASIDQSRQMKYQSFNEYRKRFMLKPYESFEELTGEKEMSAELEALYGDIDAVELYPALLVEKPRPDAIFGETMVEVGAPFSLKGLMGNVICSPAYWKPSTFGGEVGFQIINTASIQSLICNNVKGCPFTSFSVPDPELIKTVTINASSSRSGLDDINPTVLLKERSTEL
In words: Receptor Profiling 118030. It counts as biochemical. The method, then:
as §1

The subject of series [12] is Haemophilus influenzae. In words: MIC, microbroth dilution. It counts as cell-based.
Series [13] has as its target T8, Opiate Delta1 (OP1, DOP) (Homo sapiens, UniProt P41143).
T8 construct: purchased Eurofins Discovery Services (Panlabs safety panel)
Kind of series: Receptor Profiling 260130. It counts as binding. The protocol: as §1

Series [14] has as its target T9, Cycloogenase COX-1 (Homo sapiens, UniProt P23219).
T9 construct: Eurofins Discovery Services (contract assay) 116030
In words: Receptor Profiling 116030. Format: biochemical. The protocol: as §1

Series [15] deals with T10, Transporter, Dopamine (DAT) (Homo sapiens, UniProt Q01959).
T10 construct: Eurofins Discovery Services (contract assay) 220320
T10 sequence (Q01959 whole entry): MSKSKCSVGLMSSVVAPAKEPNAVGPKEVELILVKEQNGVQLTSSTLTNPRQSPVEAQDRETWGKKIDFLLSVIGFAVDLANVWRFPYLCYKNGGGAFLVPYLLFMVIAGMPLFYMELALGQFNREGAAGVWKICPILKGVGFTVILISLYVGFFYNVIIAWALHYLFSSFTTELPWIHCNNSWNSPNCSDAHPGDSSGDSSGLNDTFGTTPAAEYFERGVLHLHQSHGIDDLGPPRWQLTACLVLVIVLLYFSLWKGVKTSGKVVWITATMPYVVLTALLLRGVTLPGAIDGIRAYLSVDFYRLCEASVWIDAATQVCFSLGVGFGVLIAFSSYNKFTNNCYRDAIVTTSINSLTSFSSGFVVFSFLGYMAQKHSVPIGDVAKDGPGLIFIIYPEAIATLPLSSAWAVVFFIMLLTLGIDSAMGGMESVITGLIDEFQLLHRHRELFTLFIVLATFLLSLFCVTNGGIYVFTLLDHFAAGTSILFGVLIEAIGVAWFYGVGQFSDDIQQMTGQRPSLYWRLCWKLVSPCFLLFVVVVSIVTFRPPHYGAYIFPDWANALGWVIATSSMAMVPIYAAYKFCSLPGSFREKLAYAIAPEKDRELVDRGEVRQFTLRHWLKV
Kind of series: Receptor Profiling 220320. Format: binding. The method, then:
as §1

Series [16] addresses T11, Opiate Kappa (OP2, KOP) (Homo sapiens, UniProt P41145).
T11 construct: purchased Eurofins Discovery Services (Panlabs safety panel)
In words: Receptor Profiling 260210. Format: binding. The method, then: as §1

T3 sequence (P31645 whole entry): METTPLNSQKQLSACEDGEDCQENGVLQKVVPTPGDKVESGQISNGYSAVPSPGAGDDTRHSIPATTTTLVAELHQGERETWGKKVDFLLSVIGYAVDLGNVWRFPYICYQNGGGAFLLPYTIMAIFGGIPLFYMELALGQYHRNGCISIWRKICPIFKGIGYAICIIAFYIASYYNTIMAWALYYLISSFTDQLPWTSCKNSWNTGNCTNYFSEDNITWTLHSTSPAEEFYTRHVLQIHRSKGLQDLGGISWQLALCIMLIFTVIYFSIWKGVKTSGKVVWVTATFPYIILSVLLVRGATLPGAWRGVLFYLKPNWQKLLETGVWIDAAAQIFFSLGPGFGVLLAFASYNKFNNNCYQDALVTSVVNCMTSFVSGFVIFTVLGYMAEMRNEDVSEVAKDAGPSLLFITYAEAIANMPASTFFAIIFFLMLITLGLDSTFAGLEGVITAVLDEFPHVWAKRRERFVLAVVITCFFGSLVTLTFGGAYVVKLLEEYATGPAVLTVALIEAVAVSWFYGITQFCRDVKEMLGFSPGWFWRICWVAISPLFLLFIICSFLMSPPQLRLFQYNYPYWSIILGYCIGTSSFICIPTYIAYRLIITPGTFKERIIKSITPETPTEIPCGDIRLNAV
T8 sequence (P41143 whole entry): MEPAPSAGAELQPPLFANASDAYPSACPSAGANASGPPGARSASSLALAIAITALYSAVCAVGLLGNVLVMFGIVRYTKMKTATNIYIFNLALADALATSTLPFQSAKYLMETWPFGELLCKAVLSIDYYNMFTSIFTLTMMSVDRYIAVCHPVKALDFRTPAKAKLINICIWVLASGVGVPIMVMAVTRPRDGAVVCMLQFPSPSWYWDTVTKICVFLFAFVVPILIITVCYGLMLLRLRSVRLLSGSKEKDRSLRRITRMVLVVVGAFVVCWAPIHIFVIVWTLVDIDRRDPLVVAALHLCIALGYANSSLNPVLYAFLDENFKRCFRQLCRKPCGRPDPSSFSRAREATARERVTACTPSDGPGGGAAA
T9 sequence (P23219 24-599): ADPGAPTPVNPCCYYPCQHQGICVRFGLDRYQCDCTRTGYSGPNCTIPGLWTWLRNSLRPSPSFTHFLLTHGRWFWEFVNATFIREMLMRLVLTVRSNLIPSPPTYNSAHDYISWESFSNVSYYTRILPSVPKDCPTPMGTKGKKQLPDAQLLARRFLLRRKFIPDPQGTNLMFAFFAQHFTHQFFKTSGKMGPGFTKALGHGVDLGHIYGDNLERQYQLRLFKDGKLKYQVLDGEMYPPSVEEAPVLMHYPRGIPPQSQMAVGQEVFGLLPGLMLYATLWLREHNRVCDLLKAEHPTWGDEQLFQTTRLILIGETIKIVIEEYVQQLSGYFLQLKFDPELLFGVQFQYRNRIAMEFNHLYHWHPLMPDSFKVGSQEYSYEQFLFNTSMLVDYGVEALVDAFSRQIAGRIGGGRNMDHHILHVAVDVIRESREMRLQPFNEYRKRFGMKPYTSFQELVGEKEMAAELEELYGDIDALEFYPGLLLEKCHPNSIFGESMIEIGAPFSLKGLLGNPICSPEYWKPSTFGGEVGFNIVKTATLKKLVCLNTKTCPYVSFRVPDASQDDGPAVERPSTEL
T11 sequence (P41145 whole entry): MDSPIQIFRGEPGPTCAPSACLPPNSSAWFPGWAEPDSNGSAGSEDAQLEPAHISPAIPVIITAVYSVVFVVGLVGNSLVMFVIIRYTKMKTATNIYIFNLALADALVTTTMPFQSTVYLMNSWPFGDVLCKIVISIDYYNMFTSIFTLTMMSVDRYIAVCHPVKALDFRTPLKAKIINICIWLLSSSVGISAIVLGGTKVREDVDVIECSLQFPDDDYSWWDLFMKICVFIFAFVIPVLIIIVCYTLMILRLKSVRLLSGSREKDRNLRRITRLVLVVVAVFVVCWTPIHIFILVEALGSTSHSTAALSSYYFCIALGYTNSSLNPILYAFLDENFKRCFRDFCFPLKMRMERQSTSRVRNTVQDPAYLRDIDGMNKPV
T5 sequence (P28223 whole entry): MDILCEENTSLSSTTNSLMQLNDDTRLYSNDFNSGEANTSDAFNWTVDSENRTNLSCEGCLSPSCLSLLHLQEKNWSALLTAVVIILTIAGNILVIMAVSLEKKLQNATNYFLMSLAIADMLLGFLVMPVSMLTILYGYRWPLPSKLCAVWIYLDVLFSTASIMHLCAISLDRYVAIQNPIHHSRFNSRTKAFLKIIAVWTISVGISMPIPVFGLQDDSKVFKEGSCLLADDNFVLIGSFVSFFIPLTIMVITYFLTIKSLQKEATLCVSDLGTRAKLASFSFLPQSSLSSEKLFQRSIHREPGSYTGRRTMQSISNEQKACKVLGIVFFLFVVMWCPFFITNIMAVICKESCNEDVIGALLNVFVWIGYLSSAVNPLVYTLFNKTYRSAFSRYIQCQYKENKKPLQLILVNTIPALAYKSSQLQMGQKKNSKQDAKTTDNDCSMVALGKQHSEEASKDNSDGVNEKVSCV

Compound `O=C(Nc1nnc(-c2ccc(F)cc2)o1)c1ccc(Cl)cc1` [KKL-35, 4-chloro-N-(5-(4-fluorophenyl)-1,3,4-oxadiazol-2-yl)benzamide] gave a half-inhibitory concentration (IC50) in [1] of 400 nM.

Consider `O=C(Nc1nnc(-c2ccc(F)cc2)o1)N1CCc2ccccc2C1` [MBX-4132], for which the inhibition at 10 µM in series [2] was -15%; in series [3], 21%; in series [6], -10%; in series [7] it was -7%; in series [9], 18%; in series [10] it was 30%. The inhibition at 10 µM in series [11] was 10%; in series [13], 5%; in [14] it was 8%; in series [15], 3%; in series [16], 13%. Also, the “% inhibition” value in series [4] was 21%. Further, the normalized in series [1] ([4132] 0.01) is 102.817 and 102.626 and 90.8451; in series [1] ([4132] 0.05) it was 66.6667; in [1] ([4132] 0.1), 59.331 and 41.3424 and 66.6667; in [1] ([4132] 0.5), 46.831 and 41.784. For the same compound, the background subtraction in [1] ([4132] 0.05) is 284; in series [1] ([4132] 0.1) it was 337 and 425 and 284; in [1] ([4132] 0.5), 266 and 178; in series [1] ([4132] 1), 213 and 266 and 426; in series [1] ([4132] 2) it was 302 and 230. In addition, the “raw luminescence read (rlu)” value in [1] ([4132] 0.05) was 319 rlu; in series [1] ([4132] 0.1), 443 rlu and 372 rlu and 319 rlu; in series [1] ([4132] 0.5) it was 301 rlu and 213 rlu; in [1] ([4132] 1), 248 rlu and 284 rlu and 461 rlu; in series [1] ([4132] 2) it was 337 rlu and 248 rlu. This compound also registered an IC50 in series [1] of 400 nM. Besides, in [5] (Replicate 1/2), the “Serum binding (% bound) Rat” value is 99.9% and 85.2%. The fraction unbound is 0.07 in series [5] (Reported value) and 0.074 in series [5] (Average Value). In [8] (Reported value, Eurofins), the “Microsomal stability (t½, min) Human” value is listed as above 120 min. Moreover, in [8] (human, liver microsomes, read-out: Microsomal Stability (t1/2; min) Hum.), the half-life is above 2 h. In addition, the MIC came out at 17 µg/mL (≈ 50.2 µM) in [12] (Haemophilus influenzae ATCC 35056, replicates); 17 µg/mL (≈ 50.2 µM) in [12] (Haemophilus influenzae, ATCC35056, Haemophilus influenzae ATCC 35056, replicates, read-out: MIC); 17.5 µg/mL (≈ 51.7 µM) in series [12] (Haemophilus influenzae, ATCC35056, strain ATCC 35056, read-out: MIC).

In general, IC50 refers to the concentration that gives 50% inhibition. Broadly, the inhibition is the drop in the measured response relative to a control, in per cent. As usually defined, the % inhibition is the percentage by which the read-out fell short of the control.

These data come from publication PMC7979765, “trans-Translation inhibitors bind to a novel site on the ribosome and clear Neisseria gonorrhoeae in vivo” (Nature Communications, 2021).
